From publication PMC11303713, “Allosteric inhibition of CFTR gating by CFTRinh-172 binding in the pore” (Nature Communications, 2024)
Entries after “also recorded” stand apart in the source; their conditions may differ.

Tests used:
[1] = test system: E1371Q- and W1145Y/E1371Q-CFTR; assay: Intracellular SCN- blockade, I-V voltage ramps on excised patch; type: cell-based; conditions: 2 mM or 10 mM cytoplasmic SCN-
Description: Also, Sonawane and Verkman
(2008), which carried out a structure-activity relationship study, could have been considered to understand whether the moieties of CFTRinh-172 that were found important for inhibitory activity correspond to interactions with specific parts of CFTR protein.
We thank the reviewer for pointing this out. Now, these two papers are both cited, and their contents are incorporated into the 2nd and 10th paragraph of the Discussion.
4) As a control, a CFTR inhibitor having a completely different structure could have been used to check that potency was not affected by mutagenesis.
Most CFTR inhibitors block CFTR pore from the cytoplasmic side in a voltage-dependent manner, such as glibenclamide (Sheppard and Robinson, 1997), NPPB (Walsh et al., 1999), and DNDS (Linsdell and Hanrahan, 1996). Since these CFTR inhibitors likely block the open channel by traveling down the internal vestibule to the narrow region of the pore, the mutations introduced to the Inh-172’s binding site, which is just below the narrow region, would inevitably affect the actions of these CFTR blockers. […]
Comparison of intracellular SCN- blockade on E1371Q- and W1145Y/E1371Q-CFTR. […] Fraction of block was calculated according to the equation “Fraction of block = 1 – (ISCN)/I0” where ISCN and I0 represent the blocked and unblocked current at a given voltage on the same patch. […]

[2] = test system: "lock-opened" CFTR with dimerized NBDs; parameters: method as in Zhou et al., 2002; conditions: ref Zhou et al., 2002; cited from earlier work

## N#CS [SCN-, thiocyanate]
[1]
  potency of SCN- (fraction of block), E1371Q- vs W1145Y/E1371Q-CFTR: barely affected; also recorded: does not differ

## COc1ccc(Cl)cc1C(=O)NCCc1ccc(S(=O)(=O)NC(=O)NC2CCCCC2)cc1 [glibenclamide]
[2]
  off-rate: ~ 10 s-1
